Data taken from paper PMC6811539, “Minute-scale persistence of a GPCR conformation state triggered by non-cognate G protein interactions primes signaling” (Nature Communications, 2019).

Test system: β2-AR-Sp SPASM sensor
Assay: ΔFRET assay of β2-AR activation on native membranes with β2-AR-Sp SPASM sensor
Type: biochemical, human
Design: mean ΔFRET: unit of the concentration uncertain
Details: for mean ΔFRET: SuppFig 3c
Protocol: Membranes were prepared following a published protocol[56] from HEK293T cells transiently transfected with the appropriate DNA (β2-AR-mCherry, β2-mCerulean, V1AR-mCherry, β2-AR-ICL3 or β2-AR-Sp). Cells were collected in culture medium and washed twice with PBS by centrifugation (300 × g, 3 min, ambient temperature). Cell pellets were incubated with an ice-cold hypotonic buffer (solution A: 10 mM HEPES, 1 mM EGTA, pH 7.2) for 30 min on ice. Cells in solution A were lysed gently (30 strokes) in a chilled Dounce homogenizer in the presence of 1.5 μg/mL aprotinin, 1.5 μg/mL leupeptin, 5 μg/mL phenylmethylsulfonyl fluoride (PMSF) and 1 mM dithiothreitol (DTT). Nuclei and intact cells were eliminated by centrifugation at 1000 × g, 5 min, 4 °C. All subsequent centrifugation steps were performed in a TLA100.4 rotor at 135,000 × g, 30 min, 4 °C. Native membranes were washed with 20 mM HEPES, 100 mM NaCl, 5 mM MgCl2, 100 μM GDP in the presence of 1.5 μg/mL aprotinin, 1.5 μg/mL leupeptin, 5 μg/mL PMSF, and 1 mM DTT, and were stored in the same buffer with 12% sucrose. For experiments to monitor Gα peptide–GPCR interactions using ΔFRET response, the native β2-AR-Sp sensor-containing membranes were washed in buffer containing 20 mM HEPES, 100 mM NaCl, 45 mM KCl, 5 mM MgCl2, and 100 μM GDP, and were stored in sucrose (12% w/v)-supplemented wash buffer.
Native membranes were collected from HEK293T cells expressing either the β2-AR-Sp SPASM sensor or the β2-AR-ICL3 conformational sensor. Frozen membranes were thawed and handled on ice. The membranes were resuspended by sonication to a concentration of 100 nM sensor (1 × 10^6 mCer cps) in 20 mM HEPES, 100 mM NaCl, 45 mM KCl, 5 mM MgCl2, pH 7.4 (ΔFRET buffer minus Ca^2+) in the presence of 1.5 μg/mL aprotinin, 1.5 μg/mL leupeptin, and 5 μg/mL PMSF. Indicated peptides were added to 30 μM (50 μM for PC-Qp) in a sample volume of 1 mL. The sample was aliquoted as 90 μl into ten replicate tubes—five labeled ISO and five buffer. Agonist solution (ISO) containing 1 mM Isoproterenol and 1 mM ascorbic acid was prepared in ΔFRET buffer minus Ca^2+. […]

DTENIRFVFAAVKDTILQLNLKE(Anp)NLV [PC-Qp, photocleavable Qp, Y356 replaced by Anp]
mean ΔFRET (PCQp (30 µM)): 0.018 | mean ΔFRET (PCQp (50 µM)): 0.024 | duration of sustained FRET response after peptide removal (β2-AR-Sp sensor, ISO 100 μM, depletion (bioQp) or photocleavage (PC-Qp)): 120 s
